Experimental data from patent US20090018215A1, “Fumigant for wood parasitic nematodes and wood fumigation method” (priority 2004, published 2009).
Read-outs that look alike come from different tables or passages of the source.

Test system: Bursaphelenchus xylophilus
Assay type: in vivo
Conditions: 24 hours

Row | SMILES | effect of killing nematodes (control area: sulfuryl fluoride alone, 50 g/m^3, 15° C.) [%] | effect of killing nematodes (control area: methyl iodide as is, injected through injection syringe, 96 g/m^3, 10° C.) [%]
1 | O=S(=O)(F)F [sulfuryl fluoride] | 89 | –
2 | CI [methyl iodide] | – | 98
